Data on 24 compounds can be found in patent US10172832B2, “Amide derivatives of N-urea substituted amino acids as formyl peptide receptor like-1 (FPRL-1) receptor modulators” (Allergan, Inc., priority 2011, dated 2019).

The assay deals with T1, FPRL-1 (Homo sapiens, UniProt P25090).
T1 construct: expressed in transfected cells
T1 sequence (P25090 1-351): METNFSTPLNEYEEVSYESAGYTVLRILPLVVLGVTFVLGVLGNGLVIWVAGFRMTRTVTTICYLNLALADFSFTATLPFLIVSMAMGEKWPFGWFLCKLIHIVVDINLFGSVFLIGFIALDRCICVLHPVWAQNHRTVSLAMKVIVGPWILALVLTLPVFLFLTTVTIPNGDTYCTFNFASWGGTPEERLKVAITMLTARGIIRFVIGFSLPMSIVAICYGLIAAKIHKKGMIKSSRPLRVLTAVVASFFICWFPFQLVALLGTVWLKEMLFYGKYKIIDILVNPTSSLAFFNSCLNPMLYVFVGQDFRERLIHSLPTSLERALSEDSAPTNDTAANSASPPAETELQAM
In words: compound-induced calcium activity on FLIPR Tetra in CHO-Gα16 cells stably expressing FPRL1. In kind it is cell-based. The settings on record: for FPRL-1 Ga16-CHO (Rel. eff.): relative efficacy; for EC50: tested 0.61 to 10,000 nM, read-out: FPRL-1 Ga16-CHO EC50. The procedure:
CHO-Gα16 cells stably expressing FPRL1 were cultured in (F12, 10% FBS, 1% PSA, 400 μg/ml geneticin and 50 μg/ml hygromycin) and HEK-Gqi5 cells stable expressing FPR1 were cultured in (DMEM high glucose, 10% FBS, 1% PSA, 400 μg/ml geneticin and 50 μg/ml hygromycin). In general, the day before the experiment, 18,000 cells/well were plated in a 384-well clear bottom poly-d-lysine coated plate. The following day the screening compound-induced calcium activity was assayed on the FLIPR^Tetra. The drug plates were prepared in 384-well microplates using the EP3 and the MultiPROBE robotic liquid handling systems. Compounds were tested at concentrations ranging from 0.61 to 10,000 nM. Results are expressed as EC50 (nM) and efficacy values.

Regarding `CC(C)C[C@H](NC(=O)Nc1ccc(Br)cc1)C(=O)N[C@H](C(N)=O)c1ccccc1` [Compound 54, (2S)-N-[(1S)-2-amino-2-oxo-1-phenylethyl]-2-{[(4-bromophenyl)carbamoyl]amino}-4-methylpentanamide], the “FPRL-1 Ga16-CHO (Rel. eff.)” value was “(0.99)” and the concentration giving a half-maximal response (EC50) (as a rule, the concentration that produces a half-maximal response) worked out at 84 nM. Take `CC(C)C[C@H](NC(=O)Nc1ccc(C(F)(F)F)cc1)C(=O)NCC(=O)OC(C)(C)C` [Compound 62, tert-butyl {[(2S)-4-methyl-2-({[4-(trifluoromethyl)phenyl]carbamoyl}amino)pentanoyl]amino}acetate]: the “FPRL-1 Ga16-CHO (Rel. eff.)” value is recorded as “(0.81)” and the EC50 came out at 309 nM. As to `CC(C)(C)OC(=O)CNC(=O)C(CC(N)=O)NC(=O)Nc1ccc(Br)cc1` (centres unmarked) [Compound 88, tert-butyl {[4-amino-2-{[(4-bromophenyl)carbamoyl]amino}-4-oxobutanoyl]amino}acetate], the “FPRL-1 Ga16-CHO (Rel. eff.)” value is reported as “(0.90)” and the EC50 turned out to be 2310 nM.

As to `CCC[C@H](NC(=O)Nc1ccc(Br)cc1F)C(=O)NCCO` [Compound 21, (2S)-2-{[(4-bromo-2-fluorophenyl)carbamoyl]amino}-N-(2-hydroxyethyl) pentanamide], the “FPRL-1 Ga16-CHO (Rel. eff.)” value is on record as “(0.87)” and the concentration for a half-maximal effect (EC50) worked out at 105 nM. For the compound `NC(=O)CC(NC(=O)Nc1ccc(Br)cc1)C(=O)NCC(=O)O` (centres unmarked) [[(4-amino-2-{[(4-bromophenyl)carbamoyl]amino}-4-oxobutanoyl)amino]acetic acid], the “FPRL-1 Ga16-CHO (Rel. eff.)” value was “(0.81)” and the EC50 was 2940 nM. As to `CC(C)C[C@H](NC(=O)Nc1ccc(S(C)(=O)=O)cc1)C(=O)NCC(=O)O` [Compound 78, {[(2S)-4-methyl-2-({[4-(methylsulfonyl)phenyl]carbamoyl}amino)pentanoyl]amino}acetic acid], the “FPRL-1 Ga16-CHO (Rel. eff.)” value is on record as “(1.12)” and the EC50 was determined as 459 nM. On to `CC(=O)CNC(=O)[C@H](CC(C)C)NC(=O)Nc1ccc(Br)cc1F` [Compound 35, (2S)-2-{[(4-bromo-2-fluorophenyl)carbamoyl]amino}-4-methyl-N-(2-oxopropyl)pentanamide], for which the “FPRL-1 Ga16-CHO (Rel. eff.)” value is “(0.99)” and the EC50 worked out at 20 nM. On to `CC(C)C[C@H](NC(=O)Nc1ccc(Br)cc1F)C(=O)NCCO` [Compound 36, (2S)-2-{[(4-bromo-2-fluorophenyl)carbamoyl]amino}-N-(2-hydroxyethyl)-4-methylpentanamide], for which the “FPRL-1 Ga16-CHO (Rel. eff.)” value was “(1.05)” and the EC50 came out at 77 nM. The corresponding values for `CCC[C@H](NC(=O)[C@H](CC(C)C)NC(=O)Nc1ccc(Br)cc1)C(=O)OC(C)(C)C` [Compound 49] are “(1.06)” and 13 nM. `O=C(Nc1ccc(Br)cc1)N[C@@H](Cc1ccccc1)C(=O)NCCO` [Compound 9, (2S)-2-{[(4-bromophenyl)carbamoyl]amino}-N-(2-hydroxyethyl)-3-phenylpropanamide]: the “FPRL-1 Ga16-CHO (Rel. eff.)” value is “(0.92)” and the concentration giving a half-maximal response (EC50) was found to be 6 nM.

Regarding `CCC[C@H](NC(=O)Nc1ccc(Br)cc1F)C(=O)NCC(C)=O` [(2S)-2-{[(4-bromo-2-fluorophenyl)carbamoyl]amino}-N-(2-oxopropyl)pentanamide], the “FPRL-1 Ga16-CHO (Rel. eff.)” value is on record as “(0.92)” and the concentration giving a half-maximal response (EC50) was determined as 92 nM.

Take `CC(C)CC(C)(NC(=O)Nc1ccc(Br)cc1)C(=O)NCC(=O)O` (centres unmarked) [Compound 56, {[2-{[(4-bromophenyl)carbamoyl]amino}-2,4-dimethylpentanoyl]amino}acetic acid]: the “FPRL-1 Ga16-CHO (Rel. eff.)” value is on record as “(0.98)” and the EC50 was determined as 22 nM. The corresponding values for `CC[C@H](C)[C@H](NC(=O)Nc1ccc(Br)cc1F)C(=O)NCC(=O)O` [Compound 3, {[(2S,3S)-2-{[(4-bromo-2-fluorophenyl)carbamoyl]amino}-3-methylpentanoyl]amino}acetic acid] are “(0.95)” and 5.5 nM. `CC(C)C[C@H](NC(=O)Nc1ccc(SC(F)(F)F)cc1)C(=O)NCC(=O)O` [Compound 72, ({(2S)-4-methyl-2-[({4-[(trifluoromethyl)sulfanyl]phenyl}carbamoyl)amino]pentanoyl}amino)acetic acid]: the “FPRL-1 Ga16-CHO (Rel. eff.)” value is “(1.07)” and the EC50 was found to be 560 nM. The corresponding values for `CC(C)C[C@H](NC(=O)Nc1ccc(Br)cc1F)C(=O)N[C@@H](C)C(=O)O` [Compound 39, (2S)-2-{[(2S)-2-{[(4-bromo-2-fluorophenyl)carbamoyl]amino}-4-methylpentanoyl]amino}propanoic acid] are “(0.95)” and 12 nM.

With `CC(C)C[C@H](NC(=O)Nc1ccc([S+](C)[O-])cc1)C(=O)NCC(=O)OC(C)(C)C` (stereo partly drawn) [Compound 75, tert-butyl {[(2S)-4-methyl-2-({[4-(methylsulfinyl)phenyl]carbamoyl}amino)pentanoyl]amino}acetate], the “FPRL-1 Ga16-CHO (Rel. eff.)” value is recorded as “(0.97)” and the EC50 was 668 nM. In the case of `CC(C)C[C@H](NC(=O)Nc1ccc(Br)cc1)C(=O)NC(CO)CO` [Compound 48, (2S)-2-{[(4-bromophenyl)carbamoyl]amino}-N-[2-hydroxy-1-(hydroxymethyl)ethyl]-4-methylpentanamide], the EC50 was found to be 7.4 nM.

Take `CC(C)C[C@H](NC(=O)Nc1ccc(Br)cc1F)C(=O)NCC(=O)OC(C)(C)C` [Compound 33, tert-butyl{[(2S)-2-{[(4-bromo-2-fluorophenyl)carbamoyl]amino}-4-methylpentanoyl]amino}acetate]: the “FPRL-1 Ga16-CHO (Rel. eff.)” value is on record as “(1.19)” and the EC50 is 134 nM. For `CC[C@H](C)[C@H](NC(=O)Nc1ccc(Br)cc1)C(=O)NCC(C)=O` [Compound 12, (2S,3S)-2-{[(4-bromophenyl)carbamoyl]amino}-3-methyl-N-(2-oxopropyl)pentanamide] the same measures were “(0.97)” and 10 nM. In the case of `O=C(O)CNC(=O)[C@H](Cc1ccccc1)NC(=O)Nc1ccc(Br)cc1` [Compound 1, {[(2S)-2-{[(4-bromophenyl)carbamoyl]amino}-3-phenylpropanoyl]amino}acetic acid], the “FPRL-1 Ga16-CHO (Rel. eff.)” value was “(0.99)” and the EC50 is 7.7 nM. The corresponding values for `CC(C)C[C@H](NC(=O)Nc1ccc(C(F)(F)F)cc1)C(=O)NC(C)(C)C(=O)OC(C)(C)C` [Compound 79, tert-butyl 2-methyl-2-{[(2S)-4-methyl-2-({[4-(trifluoromethyl)phenyl]carbamoyl}amino)pentanoyl]amino}propanoate] are “(1.07)” and 1020 nM.

Turning to `CCC[C@H](NC(=O)Nc1ccc(Br)cc1F)C(=O)NCC(=O)O` [{[(2S)-2-{[(4-bromo-2-fluorophenyl)carbamoyl]amino}pentanoyl]amino}acetic acid], the “FPRL-1 Ga16-CHO (Rel. eff.)” value was “(0.92)” and the EC50 was 4.8 nM. For `CCC[C@H](NC(=O)Nc1ccc(Br)cc1)C(=O)NCC(N)=O` [Compound 30, (2S)-N-(2-amino-2-oxoethyl)-2-{[(4-bromophenyl)carbamoyl]amino}-pentanamide] the same measures were “(0.97)” and 2.5 nM. For `CC(C)(NC(=O)Nc1ccc(Br)cc1)C(=O)NCC(=O)O` [Compound 60, {[2-{[(4-bromophenyl)carbamoyl]amino}-2-methylpropanoyl]amino}acetic acid], the “FPRL-1 Ga16-CHO (Rel. eff.)” value is given as “(0.99)” and the EC50 is 480 nM.
